Measurements reported in patent publication US20130252930A1 (BIOMARIN PHARMACEUTICAL INC., priority 2010, published 2013).
Like-named read-outs stand apart in the source and are kept apart here.

Tests used:
[1] = molecular target: T1, Cyp21 enzyme (Human HEK 293-Cyp21 stable transfected cells) (Homo sapiens, UniProt P08686); assay: CYP21-HEK293 enzymatic assay (% inhibition at 100 nM) (Biological Example 10); assay type: cell-based; settings: HEK 293-Cyp21 cells
T1 construct: expressed in transfected cells
T1 sequence (P08686 1-495): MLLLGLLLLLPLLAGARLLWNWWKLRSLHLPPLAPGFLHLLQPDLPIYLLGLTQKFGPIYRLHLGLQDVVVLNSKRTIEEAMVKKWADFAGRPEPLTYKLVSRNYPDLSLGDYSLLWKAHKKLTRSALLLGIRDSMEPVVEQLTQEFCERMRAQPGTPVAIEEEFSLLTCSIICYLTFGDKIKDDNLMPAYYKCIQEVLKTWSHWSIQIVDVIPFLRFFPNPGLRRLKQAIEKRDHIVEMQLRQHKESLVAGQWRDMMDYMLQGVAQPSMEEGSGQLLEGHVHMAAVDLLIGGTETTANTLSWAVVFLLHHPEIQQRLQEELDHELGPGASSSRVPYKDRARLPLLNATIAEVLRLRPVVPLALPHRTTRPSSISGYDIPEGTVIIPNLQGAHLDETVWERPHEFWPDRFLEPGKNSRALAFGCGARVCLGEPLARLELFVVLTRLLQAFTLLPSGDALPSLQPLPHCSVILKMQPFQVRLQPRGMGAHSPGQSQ
Method: Proceeding using methods similar to those described in Biological Example 11, the percent inhibition at 100 nM was measured.
This assay was used to determine compound activity against Cyp21 enzyme. Human HEK 293-Cyp21 stable transfected cells (maintained in complete growth media DMEM+10% FBS, supplemented with 125 ug/mL Hygromycin) were seeded in a 96-well plate at 20,000 cells/well/100 uL in DMEM plus 10% FBS and allowed to attach overnight. The next day, 20 μL medium was carefully removed and 10 μL of 10× pre-made compounds in DMEM+10% FBS+10% methanol was transferred to the wells to final concentrations of 1000, 100, 10, 1, or 0.1 nM. Mock treatment was 1% methanol in growth media and the cells were left at 37° C., 5% CO2 for 5 hr. After the incubation, 10 μL of substrate progesterone (Sigma) was added to the wells to make a final concentration of 10 μM. The cells were incubated the cells at 37° C. for 20 hr. At the end of incubation, 90 μL of conditioned media was removed to measure DOC level by ELISA.
Preparation of the DOC ELISA: 100 μL of coating buffer (0.025M PBS pH 7.4) containing 200 ng/mL DOC-3-carboxymethyloxime-BSA (Steraloids. inc, Cat#3469-000) was added to each well of a 96-well plate and incubated overnight at 4° C. The next day, the plates were washed twice with 250 μl of wash solution (0.015M PBS pH 7.4 containing 0.05% Tween 20). After being washed, the wells were blocked with 250 μL blocking buffer (3% BSA in 0.025M PBS, pH 7.4) at 37° C. for 2 h. The plates were washed again 3 times as before, and then 90 μL of sample /standards (prepared in complete growth media) was added into the appropriate wells followed by 10 μL of antibody solution (1:450 rabbit anti-DOC in 0.6% BSA/PBS). The plates were incubated at room temperature for 2 h on a shaker. The contents of the wells were removed and the plate was washed 4 times. After the final wash, 100 μL of secondary antibody (1:12000 HRP-goat-anti-rabbit IgG conjugate 0.6% BSA/PBS) was added into each well. The plate was incubated at 30° C. for 45 min. The plate was washed again 4 times and 100 μL of TMB substrate solution was added to each well. The plate was incubated at room temperature for 10 min. 100 μL of stop solution was added to each well and the optical density was read at 450 nm.
The mean absorbance value for each sample was used to determine the corresponding concentration from the standard curve. Data was analyzed with “log(antagonist) vs response variable slope” under “non-linear regression analysis” using Prism5 software.

[2] = molecular target: T2, CYP17 (human testicular microsome) (Homo sapiens, UniProt P05093); assay: CYP17 enzymatic assay (% inhibition at 10 nM), version 1 (Biological Example 5); assay type: biochemical
T2 construct: using microsomal fraction from human testis (Celsis Cat #S00110) as the enzyme source; tissue Celsis S00110; host or cells: human testis microsomal fraction
T2 sequence (P05093 1-508): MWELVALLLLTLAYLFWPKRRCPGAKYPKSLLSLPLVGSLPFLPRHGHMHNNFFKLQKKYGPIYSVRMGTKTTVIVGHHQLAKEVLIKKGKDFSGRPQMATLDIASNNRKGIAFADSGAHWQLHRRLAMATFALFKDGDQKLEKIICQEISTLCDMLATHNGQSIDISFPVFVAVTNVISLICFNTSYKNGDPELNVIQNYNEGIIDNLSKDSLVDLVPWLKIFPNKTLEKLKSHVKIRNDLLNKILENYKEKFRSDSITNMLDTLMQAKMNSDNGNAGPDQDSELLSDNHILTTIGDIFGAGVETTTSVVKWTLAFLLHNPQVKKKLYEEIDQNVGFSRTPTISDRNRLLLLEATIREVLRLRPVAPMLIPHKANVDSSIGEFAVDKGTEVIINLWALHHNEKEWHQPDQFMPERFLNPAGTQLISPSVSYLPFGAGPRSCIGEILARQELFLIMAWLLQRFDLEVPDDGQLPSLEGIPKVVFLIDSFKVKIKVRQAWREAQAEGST

[3] = test system: rat Cyp11B enzyme (rat adrenal mitochondria); assay: CYP11B enzymatic assay (% inhibition at 100 nM) (Biological Example 9); assay type: biochemical; settings: for Biological Example No. 9: CYP11B percent inhibition at 100 nM: 100 nM compound, cortisol by ELISA; for CYP11B enzymatic assay % inhibition at 100 nM (Biological Example No. 9): compound at 100 nM
Procedure, shortened: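 Sprague Dawley rat adrenal mitochondria were incubated with compound at 100 nM, 0.5 mM NADPH and 0.1 μM 11-deoxycortisol (pH 7.4 Tris buffer) for 60 min at 37 °C. Cortisol was measured by ELISA and corrected by subtracting the no-NADPH background. % inhibition is relative to the no-compound reaction.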

[4] = molecular target: T2, CYP17 (human testicular microsome); assay: CYP17 enzymatic assay (IC50) (Biological Example 4); assay type: biochemical
Method: The assays were performed in 96-well plates. Typical assays were carried out in total 100 μL volume that included test compounds at designated concentrations, 1× reaction buffer, 0.5 mM NADPH, 1 μM 17α-hydroxypregnenolone, and 2.5 μL of diluted human testicular microsome (Celsis. Cat #S00110). Reaction without test compound served as positive control. Reactions were allowed to incubate at 37° C. for 90 minutes with gentle shaking. The reaction was stopped by directly applying the enzymatic reaction mixture to ELISA plate for evaluation of DHEA concentration according to manufacturer's protocol (IBL America). A standard curve (OD450 vs. DHEA concentration) was generated using purified DHEA.

[5] = molecular target: T2, CYP17 (human testicular microsome); assay: CYP17 enzymatic assay (% inhibition at 1 nM) (Biological Example 12); assay type: biochemical; settings: compound at 1 nM, read-out: CYP17 enzymatic assay % inhibition at 1 nM (Biological Example No. 12)
[6] = Human liver microsome stability assay (Biological Example 8b); settings: liver microsomes, pH 7.4
Method: The reaction was started with addition of excess NADPH (5 mg/mL, 15 μL in 0.1 M potassium phosphate buffer, 1.0 mM EDTA, pH 7.4), the total volume is 45 μL (compound final concentration was 1 μM). […] 50 μL of the supernatant was transferred from each well into a 96-well sample plate containing 50 μL of ultra-pure water (Millipore) for LC-MS/MS analysis.

CYP17 (H295R cells) = molecular target: T3, CYP17 (H295R cells) (Homo sapiens, UniProt P05093); assay: CYP17 cellular assay (IC50), testosterone in H295R cells (Biological Example 7); assay type: cell-based; settings: H295R cells, testosterone; read-out: CYP17 cellular assay IC50 (Biological Example No. 7)
T3 construct: endogenous in cells; host or cells: H295R cells
T3 sequence (P05093 1-508): T2 sequence (P05093 1-508)
Procedure, shortened: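 H295R cells cultured 24 h, then exposed to compound at 100, 10, 1, 0.1 nM final in serum-free DMEM/F-12 with ITS+ and 0.1% methanol for 24 h at 37 °C. Medium testosterone measured by ELISA and plotted against compound concentration.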

[7] = 100 nM compound, read-out: Biological Example No. 10: CYP21-HEK293 percent inhibition at 100 nM
[8] = 10 nM compound, DHEA by ELISA, read-out: Biological Example No. 5: CYP17 percent inhibition at 10 nM (version 1)
[9] = human testicular microsome, DHEA by ELISA, read-out: Biological Example No. 4: CYP17 enzymatic assay IC50
[10] = compound at 100 nM, read-out: CYP21-HEK293 enzymatic assay % inhibition at 100 nM (Biological Example No. 10)
[11] = human testicular microsome, read-out: CYP17 enzymatic assay IC50 (Biological Example No. 4)

C[C@]12CC[C@H]3[C@@H](CCN4C(=O)CCCC[C@]34C)[C@@H]1CC=C2c1cccnc1 [Compound 38, (11aR,13aS)-11a,13a-dimethyl-1-(pyridin-3-yl)-3b,4,5,8,9,10,11,11a,11b,12,13,13a-dodecahydro-3H-azepino[2,1-a]cyclopenta[f]isoquinolin-7(3aH)-one]
inhibition at 0.1 µM [1, 7]: < 30% | inhibition at 0.01 µM [2, 8]: 50 to 80% | Biological Example No. 9: CYP11B percent inhibition at 100 nM [3]: na (“na” means the compound was not active under the conditions tested) | IC50 [4, 9]: < 11 nM

C[C@]12CCC(NC(=O)C3CC3)CC1=CCC1C2CC[C@]2(C)C(n3ccnc3)=CCC12 (stereo partly drawn) [Compound 238, N-((10R,13S)-17-(1H-imidazol-1-yl)-10,13-dimethyl-2,3,4,7,8,9,10,11,12,13,14,15-dodecahydro-1H-cyclopenta[a]phenanthren-3-yl)cyclopropanecarboxamide]
inhibition at 0.1 µM [1, 10]: < 30% | CYP11B enzymatic assay % inhibition at 100 nM (Biological Example No. 9) [3]: U (U means the compound had a percent inhibition of greater than or equal to 32%) | IC50 [4, 11]: < 11 nM | inhibition at 0.001 µM [5]: > 50% | half-life at 1 μM [6]: 1 to 50 min

C[C@]12CC[C@H]3[C@@H](CC[C@H]4CC(=O)CC[C@@]43C)C1=CC=C2c1cccnc1 [Compound 164, (5S,8R,9S,10S,13S)-10,13-dimethyl-17-(pyridin-3-yl)-4,5,6,7,8,9,10,11,12,13-decahydro-1H-cyclopenta[a]phenanthren-3(2H)-one]
inhibition at 0.1 µM [1, 7]: ≥ 30% | inhibition at 0.01 µM [2, 8]: > 80% | Biological Example No. 9: CYP11B percent inhibition at 100 nM [3]: U (U means the compound had a percent inhibition of greater than or equal to 32%) | IC50 [4, 9]: < 11 nM | half-life at 1 μM [6]: 1 to 50 min

C[C@]12CCCCC1C(=O)C[C@@H]1[C@@H]2CC[C@]2(C)C(n3ccnc3)=CC[C@@H]12 (stereo partly drawn) [Compound 88, (10R,13S)-17-(1H-imidazol-1-yl)-10,13-dimethyl-2,3,4,5,7,8,9,11,12,13,14,15-dodecahydro-1H-cyclopenta[a]phenanthren-6(10H)-one]
inhibition at 0.1 µM [1, 7]: < 30% | inhibition at 0.01 µM [2, 8]: > 80% | Biological Example No. 9: CYP11B percent inhibition at 100 nM [3]: T (T means the compound had a percent inhibition of less than 32% when tested at 100 nM) | IC50 [4, 9]: < 11 nM

Cc1ccncc1C1=CC[C@H]2[C@@H]3CC[C@H]4CC(=O)NCC[C@]4(C)[C@H]3CC[C@]12C [Compound 462, (5aS,5bS,7aS,10aS,10bR,12aS)-5a,7a-dimethyl-8-(4-methylpyridin-3-yl)-3,4,5,5a,5b,6,7,7a,10,10a,10b,11,12,12a-tetradecahydrocyclopenta[5,6]naphtho[1,2-d]azepin-2(1H)-one]
inhibition at 0.1 µM [1, 10]: < 30% | CYP11B enzymatic assay % inhibition at 100 nM (Biological Example No. 9) [3]: T (T means the compound had a percent inhibition of less than 32% when tested at 100 nM) | IC50 (CYP17 (H295R cells)): < 15 nM | inhibition at 0.001 µM [5]: 10 to 50%

C[C@]12CC[C@H]3[C@@H](CC[C@H]4CC(=O)NCC[C@@]43C)C1=CC=C2n1ccnc1 [Compound 447, (5aS,5bS,7aS,10bR,12aS)-8-(1H-imidazol-1-yl)-5a,7a-dimethyl-3,4,5,5a,5b,6,7,7a,10b,11,12,12a-dodecahydrocyclopenta[5,6]naphtho[1,2-d]azepin-2(1H)-one]
inhibition at 0.1 µM [1, 10]: ≥ 30% | inhibition at 0.01 µM ([2]; compound at 10 nM, read-out: CYP17 enzymatic assay % inhibition at 10 nM (Biological Example No. 5)): > 80% | CYP11B enzymatic assay % inhibition at 100 nM (Biological Example No. 9) [3]: na (“na” means the compound was not active under the conditions tested) | IC50 [4, 11]: < 11 nM | half-life at 1 μM [6]: 1 to 50 min

CN1CC[C@@]2(C)C(=CC1=O)CC[C@H]1C3=CC=C(c4cccnc4)[C@@]3(C)CC[C@@H]12 [Compound 158]
inhibition at 0.1 µM [1, 7]: ≥ 30% | inhibition at 0.01 µM [2, 8]: > 80% | Biological Example No. 9: CYP11B percent inhibition at 100 nM [3]: T (T means the compound had a percent inhibition of less than 32% when tested at 100 nM) | IC50 [4, 9]: < 11 nM | half-life at 1 μM [6]: 1 to 50 min

C[C@]12CC[C@H]3[C@@H](CC[C@H]4CC(=O)CC[C@@]43C)C1=CC=C2n1ccnc1 [Compound 171]
inhibition at 0.1 µM [1, 7]: < 30% | inhibition at 0.01 µM [2, 8]: > 80% | Biological Example No. 9: CYP11B percent inhibition at 100 nM [3]: T (T means the compound had a percent inhibition of less than 32% when tested at 100 nM) | IC50 [4]: < 11 nM | half-life at 1 μM [6]: 1 to 50 min
